Results published in patent publication US6107064A, “Process for producing xanthine derivatives with bacteria and fungi” (Kyowa Hakko Kogyo Co., Ltd., priority 1994, dated 2000).

Experiments:
adenosine A1 receptor = molecular target: T1, adenosine A1 receptor (Rattus norvegicus, UniProt P25099); experiment: Adenosine A1 Receptor Binding Test (3H-CHA binding, corpus striatum); details: 3H-CHA 1.1 nM, 25° C., 90 minutes
T1 construct: from tissue; host or cells: rat corpus striatum, washed membrane suspension
T1 sequence (P25099 1-326): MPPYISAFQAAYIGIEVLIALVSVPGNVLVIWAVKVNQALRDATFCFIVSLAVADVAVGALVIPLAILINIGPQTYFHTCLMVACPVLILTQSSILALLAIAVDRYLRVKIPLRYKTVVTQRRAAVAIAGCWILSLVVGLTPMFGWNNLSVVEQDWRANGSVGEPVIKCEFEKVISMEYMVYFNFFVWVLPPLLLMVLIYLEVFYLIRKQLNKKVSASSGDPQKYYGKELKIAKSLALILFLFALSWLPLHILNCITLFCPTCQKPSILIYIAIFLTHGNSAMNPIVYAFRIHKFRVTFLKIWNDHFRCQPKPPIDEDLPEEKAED
Protocol: The test was conducted according to the method of Bruns et al. [Mol. Pharmacol., 29, 331 (1986)] with slight modification.
Corpus striatum of a rat was suspended in ice-cooled 50 mM Tris hydroxymethyl aminomethane hydrochloride (Tris HCl) buffer (pH 7.7) by using Polytron homogenizer (manufactured by Kinematicas Co.) The suspension was centrifuged (50,000×g, 10 minutes), and the precipitate was suspended again in the same amount of 50 mM Tris HCl buffer. The suspension was centrifuged under the same conditions, and the final precipitate was suspended once again in 50 mM Tris HCl buffer to give a tissue concentration of 100 mg (wet weight)/ml. The tissue suspension was allowed to stand at 37° C. for 30 minutes in the presence of 0.02 unit/mg tissue of adenosine deaminase (manufactured by Sigma Co.) The tissue suspension was centrifuged (50,000×g, 10 minutes) and to the obtained precipitates was added 50 mM Tris HCl buffer to give a tissue concentration of 10 mg (wet weight)/ml.
To 1 ml of the tissue suspension thus prepared were added 50 μl of cyclohexyladenosine labeled with tritium (^3 H-CHA: 27 Ci/mmol, manufactured by New England Nuclear) (final concentration: 1.1 nM) and 50 μl of a test compound. The resulting mixture was allowed to stand at 25° C. for 90 minutes and then rapidly filtered by suction through a glass fiber filter (GF/C, manufactured by Whatman Co.) The filter was immediately washed three times with 5 ml each of ice-cooled 50 mM Tris HCl buffer, and transferred to a vial, and a scintillator (EX-H, manufactured by Wako Pure Chemical Industries, Ltd.) was added thereto. The radioactivity on the filter was determined with a liquid scintillation counter (manufactured by Packard Instrument Co.)
The inhibition rate (Ki value) of the test compound against the binding of A1 receptors (^3 H-CHA binding) was calculated by the equation of Cheng-Prusoff. [formula] [Notes]1. "B" means the amount of radioactivity of ^3 H-CHA bound in the presence of a test compound at various concentrations.
2. "T" means the amount of radioactivity of ^3 H-CHA bound in the absence of a test compound.
3. "IN" means the amount of radioactivity of ^3 H-CHA bound in the presence of 10 μM N^6 -(L-2-phenylisopropyl)-adenosine (Sigma Co.)

Wistar rats = experiment: Diuretic Effect; format: in vivo, rat (Wistar, male); details: for Increase in amount of K+ excreted / Increase in amount of Na+ excreted / Increase in amount of urine: control 0
Protocol: The experiment was carried out by using Wistar rats (male; 150 to 300 g). The rats were starved for 18 hours prior to the administration of a test compound (n=4 to 5). After a test compound dissolved in 0.4% methanol, 1% dimethylsulfoxde, and 0.01N sodium hydroxide/physiological saline was administered intravenously to the rat, the physiological saline (25 ml/kg) was orally administered thereto. Alternatively, a test compound dissolved in the physiological saline (25 ml/kg) was orally administered to the rats. Urine was collected from the rats during 4 hours after the oral administration, and urine volume was measured by a graduated measuring cylinder, and the electrolytes (Na^+ and K^+) in the urine were determined by flame photometer (775A, manufactured by Hitachi, Ltd.) The test results are shown in Tables 3 and 4.

[1] = system: Wistar rats, glycerol-induced renal insufficiency; experiment: Renal-Protecting Activity (Glycerol-Induced Renal Insufficiency Model); format: in vivo, rat (Wistar, male); details: for effect on increases in serum creatinine and serum urea-nitrogen: 10 mg/kg, ip
Protocol: Renal insufficiency is the condition that homeostasis of a body fluid is unable to be maintained by disorder of renal function. It is known that subcutaneous or intramuscular administration of glycerol to rats induces acute renal insufficiency characterized by renal tubular disturbance [Can. J. Physiol.
Male Wistar rats were fisted from both food and water for 18 hours. A test compound was intraperitoneally administered to the rats (dose; 0.1 ml/100 g). After 30 minutes, the rats were anesthetized with ether and the back skin was picked up and 0.8 ml/100 […] of 50% glycerol was subcutaneously administered. Twenty four hours after the glycerol injection, the rats were anesthetized with ether and 5 ml of blood was collected from the descending aorta. A sample of the collected blood was allowed to stand for 30 minutes or longer and then centrifuged at 3,000 rpm for 10 minutes to obtain the serum. Creatinine in the serum sample and urea nitrogen in the serum were determined with an autoanalyzer (AU510, Olympus Optical Co., Ltd.) using Olympus AU500/550 exclusive reagent "Katayama" in both of creatinine test (Jaffe' method) and urea-nitrogen test (enzyme method).

[2] = 0.1 mg/kg po, 4 hours, control 1.00
[3] = 1.6 mg/kg po, 4 hours, control 1.00
[4] = 1 mg/kg ip, 24 hours after glycerol, control 4.57 ± 0.31, ***p < 0.001 (Student's t test)
[5] = 1 mg/kg ip, 24 hours after glycerol, control 164.9 ± 10.3, ***p < 0.001 (Student's t test)
[6] = 0.01 mg/kg po, 4 hours, control 1.00

Compound: CCCn1c(=O)c2[nH]c([C@]34C[C@@H]5C[C@H](C3)[C@@H](O)[C@H]4C5)nc2n(CCC)c1=O (relative stereo) [Compound 2, 8-(trans-6-hydroxy-3-tricyclo[3.3.1.0^3,7]nonyl)-1,3-dipropylxanthine]
- Ki (adenosine A1 receptor): 240 pM
- Increase in amount of K+ excreted (Wistar rats; 0.1 mg/kg po, 4 hours): 12%
- Increase in amount of Na+ excreted (Wistar rats; 0.1 mg/kg po, 4 hours): 107%
- Increase in amount of urine (Wistar rats; 0.1 mg/kg po, 4 hours): 134%
- Na+/K+ (Wistar rats; [2]): 1.85
- Increase in amount of K+ excreted (Wistar rats; 1.6 mg/kg po, 4 hours): 15%
- Increase in amount of Na+ excreted (Wistar rats; 1.6 mg/kg po, 4 hours): 220%
- Increase in amount of urine (Wistar rats; 1.6 mg/kg po, 4 hours): 297%
- Na+/K+ (Wistar rats; [3]): 2.77
- Amount of creatinine in serum [1, 4]: 1.88 ± 0.20 mg/dL
- Amount of urea-nitrogen in serum [1, 5]: 58.0 ± 8.8 mg/dL

Compound: CCCn1c(=O)c2[nH]c([C@]34C[C@@H]5[C@@H](O)[C@H](C3)[C@H]3[C@@H]5[C@H]34)nc2n(CCC)c1=O [Compound 5, 8-(Trans-9-hydroxy-3-tetracyclo[3.3.1.0^3,7 .0^6,8]-nonyl)-1,3-dipropylxanthine]
- Ki (adenosine A1 receptor): 310 pM
- Increase in amount of K+ excreted (Wistar rats; 0.0025 mg/kg po, 4 hours): 8%
- Increase in amount of Na+ excreted (Wistar rats; 0.0025 mg/kg po, 4 hours): 68%
- Increase in amount of urine (Wistar rats; 0.0025 mg/kg po, 4 hours): 77%
- Na+/K+ (Wistar rats; 0.0025 mg/kg po, 4 hours, control 1.00): 1.56
- Increase in amount of K+ excreted (Wistar rats; 0.1 mg/kg po, 4 hours): 23%
- Increase in amount of Na+ excreted (Wistar rats; 0.1 mg/kg po, 4 hours): 277%
- Increase in amount of urine (Wistar rats; 0.1 mg/kg po, 4 hours): 256%
- Na+/K+ (Wistar rats; [2]): 3.07
- Amount of creatinine in serum ([1]; 0.01 mg/kg ip, 24 hours after glycerol, control 3.90 ± 0.24, ***p < 0.001): 2.18 ± 0.11 mg/dL
- Amount of urea-nitrogen in serum ([1]; 0.01 mg/kg ip, 24 hours after glycerol, control 124.9 ± 7.5, ***p < 0.001): 61.3 ± 6.1 mg/dL

Compound: CCCn1c(=O)c2[nH]c(C34CC5CC3CC(O)(C5)C4)nc2n(CCC)c1=O (stereo not drawn) [Compound 3, 8-(1-hydroxy-3-tricyclo[3.3.1.0^3,7]nonyl)-1,3-dipropylxanthine]
- Ki (adenosine A1 receptor): 500 pM
- Increase in amount of K+ excreted (Wistar rats; 0.025 mg/kg po, 4 hours): 32%
- Increase in amount of Na+ excreted (Wistar rats; 0.025 mg/kg po, 4 hours): 238%
- Increase in amount of urine (Wistar rats; 0.025 mg/kg po, 4 hours): 324%
- Na+/K+ (Wistar rats; 0.025 mg/kg po, 4 hours, control 1.00): 2.55
- Increase in amount of K+ excreted (Wistar rats; 0.1 mg/kg po, 4 hours): 18%
- Increase in amount of Na+ excreted (Wistar rats; 0.1 mg/kg po, 4 hours): 272%
- Increase in amount of urine (Wistar rats; 0.1 mg/kg po, 4 hours): 356%
- Na+/K+ (Wistar rats; [2]): 3.15
- Amount of creatinine in serum ([1]; 0.03 mg/kg ip, 24 hours after glycerol, control 3.57 ± 0.21, ***p < 0.001): 1.64 ± 0.17 mg/dL
- Amount of urea-nitrogen in serum ([1]; 0.03 mg/kg ip, 24 hours after glycerol, control 149.7 ± 7.0, ***p < 0.001): 49.0 ± 6.9 mg/dL

Compound: CCCn1c(=O)c2[nH]c([C@@]34C[C@H]5C[C@@H]3C[C@@H](C4)[C@@H]5O)nc2n(CCC)c1=O [Compound 1, 8-(Trans-9-hydroxy-3-tricyclo[3.3.1.0^3,7]nonyl)-1,3-dipropylxanthine]
- Ki (adenosine A1 receptor): 230 pM
- Amount of K+ excreted (Wistar rats; 3 μg/kg iv, n = 5, 4 hours, control 1.47 ± 0.31): 1.24 ± 0.10 mEq/kg
- Na+/K+ (Wistar rats; 3 μg/kg iv, n = 5, 4 hours, control 1.52): 2.99
- Amount of Na+ excreted (Wistar rats; 3 μg/kg iv, n = 5, 4 hours, control 2.23 ± 0.61, **p < 0.01 (Dunnett's test)): 3.71 ± 0.12 mEq/kg
- Amount of urine (Wistar rats; 3 μg/kg iv, n = 5, 4 hours, control 14.5 ± 1.8, *p < 0.05 (Dunnett's test)): 26.4 mL/kg
- Increase in amount of K+ excreted (Wistar rats; 0.01 mg/kg po, 4 hours): 11%
- Increase in amount of Na+ excreted (Wistar rats; 0.01 mg/kg po, 4 hours): 139%
- Increase in amount of urine (Wistar rats; 0.01 mg/kg po, 4 hours): 99%
- Na+/K+ (Wistar rats; [6]): 2.16
- Increase in amount of K+ excreted (Wistar rats; 0.1 mg/kg po, 4 hours): -9%
- Increase in amount of Na+ excreted (Wistar rats; 0.1 mg/kg po, 4 hours): 148%
- Increase in amount of urine (Wistar rats; 0.1 mg/kg po, 4 hours): 105%
- Na+/K+ (Wistar rats; [2]): 2.72
- Amount of creatinine in serum ([1]; 0.01 mg/kg ip, 24 hours after glycerol; control 4.35 ± 0.23; **^1) p < 0.01 (Dunnett's test)): 2.00 ± 0.21 mg/dL
- Amount of urea-nitrogen in serum ([1]; 0.01 mg/kg ip, 24 hours after glycerol; control 139.7 ± 10.2; marked ***^1)): 69.9 ± 8.4 mg/dL
- Amount of creatinine in serum ([1]; 0.1 mg/kg ip, 24 hours after glycerol; control 4.35 ± 0.23; **^1) p < 0.01 (Dunnett's test)): 2.32 ± 0.16 mg/dL
- Amount of urea-nitrogen in serum ([1]; 0.1 mg/kg ip, 24 hours after glycerol; control 139.7 ± 10.2; **^1) p < 0.01 (Dunnett's test)): 64.4 ± 4.5 mg/dL

Compound: Cn1c(=O)c2[nH]cnc2n(C)c1=O [aminophylline, reference compound]
- effect on increases in serum creatinine and serum urea-nitrogen [1]: only a weak inhibitory tendancy

Compound: CCCn1c(=O)c2[nH]c([C@@]34C[C@H]5C[C@@H]3C[C@@H](C4)[C@H]5O)nc2n(CCC)c1=O [Compound 4, 8-(cis-9-hydroxy-3-tricyclo[3.3.1.0^3,7]nonyl)-1,3-dipropylxanthine]
- Ki (adenosine A1 receptor): 310 pM
- Increase in amount of K+ excreted (Wistar rats; 0.01 mg/kg po, 4 hours): 43%
- Increase in amount of Na+ excreted (Wistar rats; 0.01 mg/kg po, 4 hours): 167%
- Increase in amount of urine (Wistar rats; 0.01 mg/kg po, 4 hours): 200%
- Na+/K+ (Wistar rats; [6]): 1.86
- Increase in amount of K+ excreted (Wistar rats; 1.6 mg/kg po, 4 hours): 35%
- Increase in amount of Na+ excreted (Wistar rats; 1.6 mg/kg po, 4 hours): 180%
- Increase in amount of urine (Wistar rats; 1.6 mg/kg po, 4 hours): 232%
- Na+/K+ (Wistar rats; [3]): 2.07
- Amount of creatinine in serum [1, 4]: 2.00 ± 0.17 mg/dL
- Amount of urea-nitrogen in serum [1, 5]: 76.0 ± 8.8 mg/dL

Compound: NS(=O)(=O)c1cc(C(=O)O)c(NCc2ccco2)cc1Cl [furosemide, reference compound]
- effect on increases in serum creatinine and serum urea-nitrogen [1]: a tendancy of deterioration
